# Assays:
# [1] = tested on: MEIS1 mRNA expression; assay: MEIS1 mRNA expression assay (Quantigene Singleplex) in MOLM14 cells; type: cell-based, human; details: 48 hours incubation
# Method in brief: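 MOLM14 cells, 3,750/well, exposed to increasing compound concentrations for 48 h. MEIS1 mRNA measured by QuantiGene Singleplex branched-DNA hybridization (lysis 45 min, hybridization 18–22 h, both 55 °C), normalized to RPL28. IC50 fitted to background-corrected fold change versus DMSO.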
# [2] = biological target: T1, menin/MLL (terbium chelate-labeled menin, FITC-MBM1 peptide) (Homo sapiens, UniProt O00255, T541A); assay: Menin/MLL homogenous time-resolved fluorescence (HTRF) assay; type: binding; details: 30 min incubation
# T1 construct: Menin (a.a 1-610-6xhis tag, 2.3 mg/mL in 20 mM Hepes)
# T1 sequence (O00255 with tags, fused parts or gaps T541A): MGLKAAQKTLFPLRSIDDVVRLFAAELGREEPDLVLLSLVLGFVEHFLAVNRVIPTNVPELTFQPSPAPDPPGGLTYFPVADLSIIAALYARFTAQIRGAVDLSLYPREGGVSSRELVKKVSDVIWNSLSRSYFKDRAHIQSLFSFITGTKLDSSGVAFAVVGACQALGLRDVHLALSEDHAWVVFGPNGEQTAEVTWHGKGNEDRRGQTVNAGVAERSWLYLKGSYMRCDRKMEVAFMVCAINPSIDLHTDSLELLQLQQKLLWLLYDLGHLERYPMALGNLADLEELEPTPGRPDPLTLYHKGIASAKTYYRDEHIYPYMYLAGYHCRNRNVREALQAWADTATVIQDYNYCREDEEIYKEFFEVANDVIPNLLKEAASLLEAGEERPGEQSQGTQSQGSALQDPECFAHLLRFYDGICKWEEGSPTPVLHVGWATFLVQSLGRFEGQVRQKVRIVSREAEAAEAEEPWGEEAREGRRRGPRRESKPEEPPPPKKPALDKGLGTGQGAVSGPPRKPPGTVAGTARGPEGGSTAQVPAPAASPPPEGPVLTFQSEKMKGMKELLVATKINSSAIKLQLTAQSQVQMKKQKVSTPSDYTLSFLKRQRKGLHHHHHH
# Method in brief: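 Terbium-labeled menin (a.a. 1-610, His-tagged; […]) pre-incubated 30 min with compound, then 75 nM FITC-MBM1 peptide added for 15 min at ambient temperature in Tris pH 7.5 buffer, 0.5% DMSO. HTRF 520/490 nm ratio read; IC50 from 11-point four-fold titrations, typically from 10 μM.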
SMILES,"IC50 ([1]; Homo sapiens, MOLM-14, 48 h) [nM]",IC50 [2] [nM],IC50 [1] [nM]
CCC(CCCN1C[C@H]2CN(C(C)=O)C[C@@H]2C1)N1CC[C@H](Cc2cn(-c3ccc(F)cc3C(=O)N(C)C(C)C)c3cncc(C)c23)C1 (mixture of isomers) [Compound 17],48,0.031,
Cc1cncc2c1c(C[C@H]1CCN(CC3CCN(C(=O)C4(O)CC4)CC3)C1)cn2-c1ccc(F)cc1C(=O)N(C)C(C)C [Compound 245],65,0.185,
"Cc1cncc2c1c(C=C1CCN(C)C1)cn2-c1ccc(F)cc1C(=O)N(C)C(C)C (single isomer, unassigned) [Compound 524a]",,19,2560
Cc1cc(CN2CC(Cc3cn(-c4ccc(F)cc4C(=O)N(C)C(C)C)c4cncc(C)c34)C2)[nH]n1 [Compound 285],~1330,1.49,
COC(=O)N1CCC(CN2CC[C@@H](Cc3cn(-c4ccc(F)cc4C(=O)N(C[C@@H](C)O)C(C)C)c4cncc(C)c34)C2)CC1 [Compound 336],33,0.128,
"CC(=O)N1CCC(N2CC(Cc3cn(-c4ccc(F)cc4C(=O)N(C)C(C)C)c4cncc(C)c34)C2)C[C@@H]1C (single isomer, unassigned) [Compound 293b]",,0.152,259
Cc1cncc2c1c(CC1CN(CC(=O)N3CC4CC4C3)C1)cn2-c1ccc(F)cc1C(=O)N(C)C(C)C (stereo not drawn) [Compound 97],1610,1.97,
Cc1cncc2c1c(C[C@@H]1CCN(CC3CCN(C(=O)C(C)(C)O)CC3)C1)cn2-c1ccc(F)cc1C(=O)N1[C@H](C)CC[C@H]1C [Compound 343],13,0.045,
"CC(=O)NC(C)CN1CCC(Cc2cn(-c3ccc(F)cc3C(=O)N(C)C(C)C)c3cncc(C)c23)C1 (single isomer, unassigned) [Compound 119a]",,0.906,> 1000
"CC(=O)N1C[C@@H]2CN([C@H]3C[C@H]([C@@H](C(C)C)N4CC(Cc5cn(-c6ccc(F)cc6C(=O)N(C)C(C)C)c6cncc(Cl)c56)C4)C3)C[C@H]2C1 (single isomer, unassigned) [Compound 39b]",35,0.052,
CC(=O)N1CCC(CN2CC[C@@H](Cc3cn(-c4ccc(F)cc4C(=O)N4[C@H](C)CC[C@H]4C)c4cncc(C)c34)C2)CC1 [Compound 354],18,0.04,
Cc1cncc2c1c(CC1CN(CC3CCOCC3)C1)cn2-c1ccc(F)cc1C(=O)N1CC2(O)CC1C2 [Compound 273],> 1000,1.08,
CC(=O)N1CC(CN2CCC(Cc3cn(-c4ccc(F)cc4C(=O)N(C)C(C)C)c4cncc(C)c34)CC2)C1 [Compound 102],> 1000,3.02,
"Cc1cncc2c1c(C[C@@H]1CCN([C@@H](C)C3CCOCC3)C1)cn2-c1ccc(F)cc1[S@](=N)(=O)C(C)C (single isomer, unassigned) [Compound 180b]",~2810,7.29,
CC(=O)N[C@H]1CC[C@H](CN2CC(Cc3cn(-c4ccc(F)cc4C(=O)N(C)C(C)C)c4cncc(C)c34)C2)CC1 [Compound 118],117,0.139,
"CC(=O)N1CCC(CN2CC[C@@H](Cc3cn(-c4ccc(F)cc4C(=O)N(C[C@H](C)O)C(C)C)c4cncc(C)c34)C2)CC1 (single isomer, unassigned) [Compound 320b]",62,0.104,
"CC(=O)N1CCC([C@H](C)N2CC[C@@H](Cc3cn(-c4ccc(F)cc4[S@](=N)(=O)C(C)C)c4cncc(C)c34)C2)CC1 (single isomer, unassigned) [Compound 230b]",> 1000,5.45,
COC(=O)N1CCC(CN2CC(Cc3cn(-c4ccc(F)cc4C(=O)N(C)C(C)C)c4cncc(C)c34)C2)CC1 [Compound 65],45,0.079,
"Cc1cncc2c1c(CC1CCN(CC3CNC(=O)C3)CC1)cn2-c1ccc(F)cc1C(=O)N(C)C(C)C (single isomer, unassigned) [Compound 186a]",419,0.447,
Cc1cncc2c1c(CC1CCN(CC3CCN(C(=O)C(C)(C)O)CC3)CC1)cn2-c1ccc(F)cc1C(=O)N(C)C(C)C [Compound 237],52,0.149,
Cc1cncc2c1c(C[C@@H]1CCN(CC3CCN(C(=O)C(C)(C)O)CC3)C1)cn2-c1ccc(F)cc1C(=O)N1CCCC12CC2 [Compound 340],> 1000,0.034,

SMILES,"IC50 ([1]; Homo sapiens, MOLM-14, 48 h) [nM]",IC50 [2] [nM],IC50 [1] [nM]
"Cc1cncc2c1c(C[C@@H]1CCN(C[C@@H]3CCNC(=O)CC3)C1)cn2-c1ccc(F)cc1C(=O)N1CCC2CC21 (single isomer, unassigned) [Compound 351b]",182,0.255,
"CC(=O)N1CCC([C@H](C)N2CC[C@H](Cc3cn(-c4ccc(F)cc4[S@@](=N)(=O)C(C)C)c4cncc(C)c34)C2)CC1 (single isomer, unassigned) [Compound 233b]",> 1000,2.24,
CCC([C@H]1C[C@@H](N2CCN(C(C)=O)CC2)C1)N1CC[C@H](Cc2cn(-c3ccc(F)cc3C(=O)N(C)C(C)C)c3cncc(C)c23)C1 (mixture of isomers) [Compound 25],91,0.087,
Cc1cncc2c1c(CC1CN(CC3CCOCC3)C1)cn2-c1ccc(F)cc1C(=O)N1CCC12CCC2 [Compound 261],217,0.213,
Cc1cncc2c1c(CC1CN(CC3CCN(C(=O)C(C)(C)O)CC3)C1)cn2-c1ccc(F)cc1C(=O)N(C)C(C)C [Compound 250],30,0.076,
CC(=O)N1CC[C@@H](CN2CCC(Cc3cn(-c4ccc(F)cc4C(=O)N(C)C(C)C)c4cncc(C)c34)CC2)C1 [Compound 112],345,0.555,
"Cc1cncc2c1c(C[C@@H]1CCN([C@H]3CCNC(=O)CC3)C1)cn2-c1ccc(F)cc1C(=O)N(C)C(C)C (single isomer, unassigned) [Compound 139a]",~810,0.122,
"Cc1cncc2c1c(C[C@H]1CCN(CC3CCN(C(=O)C(C)C)CC3)C1)cn2-c1ccc(F)cc1C(=O)N(C)C(C)C (single isomer, unassigned) [Compound 121]",13,0.049,
Cc1cncc2c1c(CC1CN(CC3CCOCC3)C1)cn2-c1ccc(F)cc1C(=O)N1CCC12COC2 [Compound 266],431,0.349,
Cc1cncc2c1c(CC1CN(CC3CCCO3)C1)cn2-c1ccc(F)cc1C(=O)N(C)C(C)C (stereo not drawn) [Compound 288],43,0.059,
CC(=O)N1CCC(CN2CCC[C@H](Cc3cn(-c4ccc(F)cc4C(=O)N(C)C(C)C)c4cncc(C)c34)C2)CC1 [Compound 145],~748,1.06,
Cc1cncc2c1c(CC1CN(CC3CCOCC3)C1)cn2-c1ccc(F)cc1C(=O)N1C[C@H](O)C[C@@H]1C [Compound 282],> 1000,3.27,
"CC(=O)N1C[C@@H]2CN([C@H]3C[C@H](C(C(C)C)N4CC(Cc5cn(-c6ccc(F)cc6C(=O)N(C)C(C)C)c6cncc(Cl)c56)C4)C3)C[C@H]2C1 (single isomer, unassigned) [Compound 40b]",~680,0.182,
"CC(=O)N1CC[C@H](CN2CCC(Cc3cn(-c4ccc(F)cc4C(=O)N(C)C(C)C)c4cncc(C)c34)C2)C1 (single isomer, unassigned) [Compound 100]",434,0.165,
CC(=O)N1[C@H](C)CC(N2CC(Cc3cn(-c4ccc(F)cc4C(=O)N(C)C(C)C)c4cncc(C)c34)C2)C[C@@H]1C (stereo partly drawn) [Compound 301],144,0.191,
Cc1cncc2c1c(CC1CN(CC3CCOCC3)C1)cn2-c1ccc(F)cc1C(=O)N(C)[C@H]1C[C@H](O)C1 [Compound 275],> 1000,0.945,
Cc1cncc2c1c(CC1CN(CC3CCCC(=O)N3)C1)cn2-c1ccc(F)cc1C(=O)N(C)C(C)C (stereo not drawn) [Compound 95],~914,0.601,
Cc1cncc2c1c(C[C@H]1CCN(CC3CCN(C(=O)C(C)(C)O)CC3)C1)cn2-c1ccc(F)cc1C(=O)N(C)C(C)C [Compound 244],51,0.101,
CNC(=O)C1CC(CN2CCC(Cc3cn(-c4ccc(F)cc4C(=O)N(C)C(C)C)c4cncc(C)c34)CC2)C1 (stereo not drawn) [Compound 129],277,0.291,
CCc1cncc2c1c(C[C@H]1CCN(CC3CCN(C(C)=O)CC3)C1)cn2-c1ccc(F)cc1C(=O)N(C)C(C)C [Compound 260],~27.6,0.042,
Cc1cncc2c1c(CC1CN(CC3(C)CCN(C(N)=O)CC3)C1)cn2-c1ccc(F)cc1C(=O)N(C)C(C)C [Compound 219],32,0.039,

# — patent publication US20230250096A1, “SUBSTITUTED PHENYL-1H-PYRROLO[2,3-c] PYRIDINE DERIVATIVES” (Janssen Pharmaceutica NV, priority 2021, published 2023)
